In BindingDB's records for doi:10.1016/j.bmcl.2012.11.020 (Glaxosmithkline, 2012) one finds IC50 data, which are given here for five compounds.

SMILES strings stand for the structures.

This experiment deals with Serine/threonine-protein kinase B-raf (Homo sapiens, UniProt P15056). The experiment is described as follows: Inhibition of B-Raf (unknown origin) expressed in mouse 3T3 cells co-expressing FLAG-tagged MEK1 assessed as inhibition of MEK1 phosphorylation after 2 hrs by ELISA.
Serine/threonine-protein kinase B-raf, sequence (P15056 whole entry): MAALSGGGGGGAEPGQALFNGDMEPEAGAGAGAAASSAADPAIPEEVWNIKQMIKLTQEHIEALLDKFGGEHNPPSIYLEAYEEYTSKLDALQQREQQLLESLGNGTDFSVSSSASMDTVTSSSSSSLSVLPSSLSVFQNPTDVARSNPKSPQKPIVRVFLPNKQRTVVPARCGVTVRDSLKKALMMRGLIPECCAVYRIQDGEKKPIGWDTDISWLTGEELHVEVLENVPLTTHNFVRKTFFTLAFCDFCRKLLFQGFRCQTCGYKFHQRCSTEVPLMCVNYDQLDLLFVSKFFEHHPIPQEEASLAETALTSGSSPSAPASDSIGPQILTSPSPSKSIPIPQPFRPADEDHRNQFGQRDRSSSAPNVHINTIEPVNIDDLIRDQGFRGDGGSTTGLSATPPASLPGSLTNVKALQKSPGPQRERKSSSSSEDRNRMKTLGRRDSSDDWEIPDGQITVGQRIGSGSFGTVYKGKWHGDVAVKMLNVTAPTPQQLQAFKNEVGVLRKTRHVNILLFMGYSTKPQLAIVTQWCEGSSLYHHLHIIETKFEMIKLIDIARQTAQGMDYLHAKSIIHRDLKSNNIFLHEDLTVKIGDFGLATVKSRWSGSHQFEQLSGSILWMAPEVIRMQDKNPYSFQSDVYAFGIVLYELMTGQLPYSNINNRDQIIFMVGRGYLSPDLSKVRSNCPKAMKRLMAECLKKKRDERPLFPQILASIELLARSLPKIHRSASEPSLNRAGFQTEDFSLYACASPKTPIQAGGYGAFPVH
For `Nc1ncc(-c2cccnc2)c2scc(-c3cccc(NC(=O)Nc4ccc(OCc5ccccc5)cc4)c3)c12`, the IC50 was greater than 10 µM.
The figure for `COc1cccc(NC(=O)Nc2cccc(-c3csc4c(-c5cccnc5)cnc(N)c34)c2)c1` is 0.7 µM; for `Nc1ncc(-c2cccnc2)c2scc(-c3cccc(NC(=O)NC4CCCCC4)c3)c12` it is 4.1 µM; for `Cc1noc(C)c1NC(=O)Nc1cccc(-c2csc3c(-c4cccnc4)cnc(N)c23)c1` it is greater than 10 µM.
In the case of `Nc1ncc(-c2cccnc2)c2scc(-c3cccc(NC(=O)C4CCCCC4)c3)c12`, the IC50 is greater than 10 µM.

For orientation: IC50 means the point on the concentration scale where inhibition reaches its midpoint.
